Experimental data taken from PMC11439058, “Exploiting the bile acid binding protein as transporter of a Cholic Acid/Mirin bioconjugate for potential applications in liver cancer therapy” (Scientific Reports, 2024).
Where “and” joins values, the source holds several entries; their conditions need not be identical. Identical values can stand only once. Like-named read-outs stand apart in the source and are kept apart here. Each block holds one compound with its values, some of them ahead of it.

Columns and labels:
[1] = tested on: Salmonella typhimurium strain TA98; assay: Mutagenicity assay: Ames test, TA98; conditions: for concentration from which a mutagenic effect is shown: Salmonella typhimurium, 90 min
Experimental: (§1) Mutagenicity assay: Ames test. The TA100 and TA98 strains of Salmonella Typhimurium were utilized for mutagenicity assay. Approximately 107 bacteria were exposed to 6 concentrations of each test compound, as well as a positive and a negative control, for 90 min in a medium containing sufficient histidine to support approximately two cell divisions. After 90 min, the exposure cultures were diluted in pH indicator medium lacking histidine, and aliquoted into 48 wells of a 384-well plate. Within two days, cells which had undergone the reversion to His grew into colonies. Metabolism by the bacterial colonies reduced the pH of the medium, changing the color of that well. This color change can be detected visually or by a microplate reader. The number of wells containing revertant colonies were counted for each dose and compared to a zero-dose control. Each dose was tested in six replicates. The following concentrations of Mirin and CA-M11 were tested: 5; 10; 30; 50; 80 and 100 µM. The concentration values tested of Doxorubicin were: 0.3; 1.2; 1.8; 3.0; 6.0 and 30 µM. The experiments were then repeated adding to Doxorubicin concentrations ranging from 0.3 to 30 µM, respectively, Mirin 5 µM and CA-M11 5 µM.

in vitro [2] = assay: in vitro
Experimental: (§2) Plasma Stability and stability in the cellular medium. A DMSO stock solution of tested compounds was incubated in the presence of human plasma ([…]) and HEPES buffer (25 mM, 140 mM NaCl, pH 7.4) or DMEM 10% FBS, (1% PS, and 1% Glu) at 37 °C under shaking. At selected time points (0, 0.083, 0.25, 0.5, 1, 2, 8, 24 h), samples were treated with cold ACN to stop reactions through protein denaturation, and centrifuged at 5000 rpm for 10 min. The supernatant was analyzed by UV/LC-MS to monitor the amount of unmodified compound. Data were calculated with Excel and plotted using GraphPad Prism 8.0 (GraphPad Software Inc., San Diego, CA, USA). The half-life value (t1/2) was calculated with the following formula: [drawing 2]

PAMPA assay = assay type: in vitro ADME; conditions: 4 h, rt
Experimental: PAMPA assay. The DMSO stock solution of each compound was diluted 1:1 v/v with phosphate buffer (PBS 10 mM, pH 7.4) to obtain donor solutions. Each well of the filter plate was covered with a 1% w/v L-α-phosphatidylcholine solution (PC) in dodecane used to mimic the phospholipidic bilayer and then added with the donor. In the acceptor plate, a mixture solution of DMSO/PBS 1:1 v/v was placed, and the sandwich was incubated at rt for 4 h under gentle shaking. At the end time point, samples were taken from both the upper and the lower plates and analyzed using the UV/LC-MS method described above. Apparent permeability (Papp cm/s x 10^−6) and membrane retention (MR %) was calculated as previously reported.

[3] = Extraction recovery from denatured microsomes (matrix effect); conditions: human, Recovery (% Rec, Time 0'), denatured human liver microsomes
From the text: Therefore, matrix effects were investigated by preparing fresh time-zero solutions made of denatured microsomes, solvent mix and tested compounds. To have a better correlation with the time-zero of the metabolic stability experiments, final volumes and concentrations used were not modified.
Extraction Recovery % (% Rec) of CA-M11 and Mirin in human liver microsomes. Data are reported as the mean ± standard deviation (SD) of n=3 experiments run in triplicates.

[4] = HepG2 cytotoxicity, Neutral Red Uptake; assay type: cell-based, Human; conditions: human
Experimental: (§3) Cell cultures and cytotoxicity assay. To evaluate the in vitro cytotoxicity of the test samples, the direct contact tests, proposed by ISO […], Biological evaluation of medical devices – Part 5: Tests for cytotoxicity: in vitro methods were used[71]. This test is suitable for sample with various shapes, sizes, or physical status (i.e. liquid or solid).
(§4) Evaluation of HepG2 viability. Cells were maintained in DMEM at 37 °C in a humidified atmosphere containing 5% CO2. The culture medium was supplemented with 10% fetal calf serum (FCS), 1% L-glutamine-penicillin-streptomycin solution, and 1% MEM Non-Essential Amino Acid Solution. Once at confluence, cells were washed with PBS 0.1 M, taken up with trypsin-EDTA solution and then centrifuged at 1000 rpm for 5 min. The pellet was re-suspended in medium solution (dilution 1:15).
(§5) The stock solutions of Mirin, Doxorubicin, and CA-M11 were prepared in DMSO. The following concentrations of Mirin and CA-M11 were tested: 5; 10; 20; 30; 40; 50; 60; 70; 80; 90 and 100 µM. […] Then, the experiments were repeated adding to Doxorubicin concentrations ranging from 0.3 to 6.0 µM, respectively, Mirin 5 µM, and CA-M11 5 µM. […] Each experiment was repeated 3 times, and all samples were set up in six replicates. A complete medium was used as negative control. […] At the end of the incubation, the routine culture medium was removed from each well, and cells were carefully rinsed with 1 mL of pre-warmed D-PBS. Multiwells were then gently blotted with paper towels. […] The cells were checked during the NR incubation for NR crystal formation. After incubation, the NR Medium was removed, cells were carefully rinsed with 1 mL of pre-warmed D-PBS. Then, the PBS was decanted and blotted from the wells and exactly 1 mL of NR Desorb solution was added to each sample. […] During this step the samples were covered in order to protect them from light. After 5 min from the plate shaker removal the absorbance was read at 540 nm by a UV/visible spectrophotometer (UV5, Mettler Toledo).

HepG2 cells = assay: HepG2 cytotoxicity, Neutral Red Uptake; assay type: cell-based, Human
Experimental: as §3, §4, §5

[5] = tested on: Salmonella typhimurium strain TA100; assay: Mutagenicity assay: Ames test, TA100; conditions: for concentration from which a mutagenic effect is shown: Salmonella typhimurium, 90 min
Experimental: as §1

in vitro [6] = assay: in vitro; remark: listed apart in the source
Experimental: as §2

[7] = Microsomal (metabolic) stability; assay type: in vitro ADME; conditions: human liver microsomes
Experimental: Microsomal stability. In the presence of phosphate buffer (PBS 10 mM, pH 7.4), human liver microsomes (HLM) (0.2 mg mL^−1), and a NADPH solution in MgCl2 48 mM, each DMSO compound solution was incubated at 37 °C for 1 h under shaking. Then, the metabolizing reactions were stopped by adding cold acetonitrile (ACN). After centrifuging and drying the reaction mixes under N2 flow, the quantitative analyses were performed using the UV/LC-MS method previously described. The percentages of the metabolized and unmetabolized compounds were calculated as previously described[73],[74].

Compound: C[C@H](CCC(=O)Oc1ccc(/C=C2\SC(=N)NC2=O)cc1)[C@H]1CCC2C3C(C[C@H](O)[C@@]21C)[C@@]1(C)CC[C@@H](O)CC1C[C@H]3O (stereo partly drawn) [CA-M11, (4R)-4-((Z)-(2-Imino-4-oxothiazolidin-5-ylidene)methyl)phenyl 4-((3R,7R,10 S,12 S,13R,17R)-3,7,12-trihydroxy-10,13-dimethylhexadecahydro-1 H-cyclopenta[a]phenanthren-17-yl)pentanoate]
concentration from which a mutagenic effect is shown [1]: ≥ 10 µM
DMEM cell culture medium stability (% ± SD) (in vitro [2]; 0 h): 93.96 ± 5.76%
DMEM cell culture medium stability (% ± SD) (in vitro [2]; 0.083 h): 91.94 ± 0.85%
DMEM cell culture medium stability (% ± SD) (in vitro [2]; 0.25 h): 94.24 ± 0.37%
DMEM cell culture medium stability (% ± SD) (in vitro [2]; 0.5 h): 94.77 ± 0.60%
DMEM cell culture medium stability (% ± SD) (in vitro [2]; 1 h): 92.08 ± 2.15%
DMEM cell culture medium stability (% ± SD) (in vitro [2]; 2 h): 82.83 ± 3.38%
half-life (in vitro [2]; buffer): 21.7 h
Membrane retention MR (%) (PAMPA assay): 2.26 ± 0.64%
recovery at 0 min [3]: < 70%
IC50 at 24 h [4]: 40 µM
cytotoxic effect on HepG2 cells at 5 µM (HepG2 cells): does not exert a significant cytotoxic effect
increase of cell death in combination with Doxorubicin (HepG2 cells; 5 µM compound + Doxorubicin 2.4 µM, HepG2, 24 h): roughly 40%
concentration from which a mutagenic effect is shown [5]: ≥ 10 µM
Plasma stability (% ± SD) (in vitro [6]; human, 0 h, pH 7.4): 72.79 ± 2.57%
Plasma stability (% ± SD) (in vitro [6]; human, 0.083 h, pH 7.4): 74.01 ± 0.65%
Plasma stability (% ± SD) (in vitro [6]; human, 0.25 h, pH 7.4): 72.29 ± 3.22%
Plasma stability (% ± SD) (in vitro [6]; human, 0.5 h, pH 7.4): 75.47 ± 0.04%
compound hydrolyzed by plasmatic esterases (in vitro [6]; human, pH 7.4): Approximately 30%
half-life (in vitro [6]; human, plasma, pH 7.4, t 1/2 (half-life) in plasma): ~18 h

Compound: COc1cccc2c1C(=O)c1c(O)c3c(c(O)c1C2=O)C[C@@](O)(C(=O)CO)C[C@@H]3O[C@H]1C[C@H](N)[C@H](O)[C@H](C)O1 [Doxorubicin]
concentration from which a mutagenic effect is shown [1]: ≥ 10 µM
viability at 24 h, 0.3 µM ([4]; HepG2 cells, Doxorubicin 0.3 µM, 24 h, read-out: Percentage of viable HepG2 cells): 84.7%
viability at 24 h, 0.6 µM ([4]; HepG2 cells, Doxorubicin 0.6 µM, 24 h, read-out: Percentage of viable HepG2 cells): 73.4%
viability at 24 h, 1.2 µM ([4]; HepG2 cells, Doxorubicin 1.2 µM, 24 h, read-out: Percentage of viable HepG2 cells): 65%
viability at 24 h, 1.8 µM ([4]; HepG2 cells, Doxorubicin 1.8 µM, 24 h, read-out: Percentage of viable HepG2 cells): 49.9%
viability at 24 h, 2.4 µM ([4]; HepG2 cells, Doxorubicin 2.4 µM, 24 h, read-out: Percentage of viable HepG2 cells): 38.4%
viability at 24 h, 3 µM ([4]; HepG2 cells, Doxorubicin 3.0 µM, 24 h, read-out: Percentage of viable HepG2 cells): 28.3%
viability at 24 h, 6 µM ([4]; HepG2 cells, Doxorubicin 6.0 µM, 24 h, read-out: Percentage of viable HepG2 cells): 18.9%
viability at 24 h, 12 µM ([4]; HepG2 cells, Doxorubicin 12.0 µM, 24 h, read-out: Percentage of viable HepG2 cells): 5.8%
IC50 at 24 h ([4]; HepG2 cells, HepG2, 24 h, Neutral Red Uptake, read-out: IC50 (cytotoxic effect)): 1.8 µM
concentration from which a mutagenic effect is shown [5]: ≥ 10 µM

half-life (in vitro [2]): > 100 h
stability percentage in DMEM cell culture medium (in vitro [2]; DMEM 10% FBS, all time points up to 24 h): above 90%
DMEM cell culture medium stability (% ± SD) (in vitro [2]; DMEM 10% FBS, time 0 h): 104.19 ± 1.20%
DMEM cell culture medium stability (% ± SD) (in vitro [2]; DMEM 10% FBS, time 0.083 h): 106.18 ± 0.16%
DMEM cell culture medium stability (% ± SD) (in vitro [2]; DMEM 10% FBS, time 0.25 h): 107.78 ± 1.57%
DMEM cell culture medium stability (% ± SD) (in vitro [2]; DMEM 10% FBS, time 0.5 h): 103.73 ± 2.61%
DMEM cell culture medium stability (% ± SD) (in vitro [2]; DMEM 10% FBS, time 1 h): 104.88 ± 6.37%
DMEM cell culture medium stability (% ± SD) (in vitro [2]; DMEM 10% FBS, time 2 h): 98.81 ± 3.43%
DMEM cell culture medium stability (% ± SD) (in vitro [2]; DMEM 10% FBS, time 8 h): 97.14 ± 2.81%
DMEM cell culture medium stability (% ± SD) (in vitro [2]; DMEM 10% FBS, time 24 h): 91.14 ± 2.70%
half-life (in vitro [2]; buffer): 114 h
Membrane retention MR (%) (PAMPA assay): 1.16 ± 0.90%
recovery at 0 min [3]: 92.3 ± 1.92%
Metabolic stability (%) ([7]; time 0 min): 92.32 ± 1.93%
Metabolic stability (%) ([7]; time 60 min): 90.65 ± 0.83%
Plasma stability (% ± SD) (in vitro [6]; human plasma, time 0 h): 89.10 ± 1.03%
Plasma stability (% ± SD) (in vitro [6]; human plasma, time 0.083 h): 90.80 ± 0.13%
Plasma stability (% ± SD) (in vitro [6]; human plasma, time 0.25 h): 92.18 ± 1.34%
Plasma stability (% ± SD) (in vitro [6]; human plasma, time 0.5 h): 88.72 ± 3.98%
Plasma stability (% ± SD) (in vitro [6]; human plasma, time 1 h): 89.70 ± 2.23%
Plasma stability (% ± SD) (in vitro [6]; human plasma, time 2 h): 84.51 ± 2.93%
Plasma stability (% ± SD) (in vitro [6]; human plasma, time 8 h): 83.07 ± 2.40%
Plasma stability (% ± SD) (in vitro [6]; human plasma, time 24 h): 77.94% and 77.94 ± 2.30%
percentage of unmodified compound in plasma (in vitro [6]; human plasma, up to 8 h of incubation): ≥ 80%
Compound: [H]/N=C1/NC(=O)C(=Cc2ccc(O)cc2)S1 [Mirin, (Z)-5-(4-Hydroxybenzylidene)-2-iminothiazolidin-4-one]
effect on Doxorubicin mutagenicity ([1]; 5 µM compound + Doxorubicin 0.3 to 30 µM, TA98): not able to affect Doxorubicin mutagenicity
IC50 at 24 h ([4]; HepG2, 24 h, Neutral Red Uptake, read-out: IC50 (cytotoxic effect)): 50 µM
effect on Doxorubicin mutagenicity ([5]; 5 µM compound + Doxorubicin 0.3 to 30 µM, TA100): not able to affect Doxorubicin mutagenicity
